{
  "source": "patent US12083109B2",
  "about": "“Neurokinin antagonists and uses thereof” (California Institute of Technology, priority 2017, dated 2024)",
  "origin": "cited, not measured here",
  "biological_target": "T1, NK3R (Homo sapiens, UniProt P29371)",
  "T1 construct": "host or cells: human trial subjects",
  "T1 sequence (P29371 1-465)": "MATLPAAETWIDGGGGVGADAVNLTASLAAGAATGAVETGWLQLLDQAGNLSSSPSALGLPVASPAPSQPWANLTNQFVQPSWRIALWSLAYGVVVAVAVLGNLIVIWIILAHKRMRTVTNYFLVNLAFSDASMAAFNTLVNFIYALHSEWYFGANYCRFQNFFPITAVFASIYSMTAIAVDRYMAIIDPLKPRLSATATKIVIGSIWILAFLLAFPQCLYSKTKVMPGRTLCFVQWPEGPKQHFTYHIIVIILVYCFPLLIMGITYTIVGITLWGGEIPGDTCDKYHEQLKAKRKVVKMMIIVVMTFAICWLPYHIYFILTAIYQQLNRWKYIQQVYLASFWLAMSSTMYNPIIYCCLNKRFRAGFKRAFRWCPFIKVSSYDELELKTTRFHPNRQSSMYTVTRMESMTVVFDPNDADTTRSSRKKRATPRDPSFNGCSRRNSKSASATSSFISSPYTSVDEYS",
  "conditions": "cited from earlier work; for safety and tolerability in clinical trials: human, Phase I",
  "note": "Like-named read-outs stand apart in the source and are kept apart here.",
  "data": [
    {"smiles": "CCC(NC(=O)c1c(O)c(-c2ccccc2)nc2ccccc12)c1ccccc1", "note": "(stereo not drawn) [Talnetant, 3-hydroxy-2-phenyl-N-(1-phenylpropyl)quinoline-4-carboxamide]", "values": [
      {"measurement": "efficacy in schizophrenia and major depressive disorder", "setting": "human trials, Phase II/III", "result": "lack of efficacy"},
      {"measurement": "safety and tolerability in clinical trials", "result": "exhibited safety"},
      {"measurement": "safety and tolerability in clinical trials", "setting": "listed as talnetant", "result": "safe and well-tolerated"}
    ]}
  ]
}
